{"source": "patent US20030022811A1", "about": "“Favorable modulation of health-related quality of life and health-related quality-adjusted time-to-progression of disease in patients with prostate cancer” (priority 2001, published 2003)", "assay_type_in_all_cases": "in vivo, human", "key": {"[1]": {"system": "patients having hormone refractory prostate cancer (HRPCa)", "experiment": "Area under the Curve (AUC) analysis of health-related QoL domain scores, one year follow-up", "description": "The Kaplan-Meier product limit method can provide biased results if study data are obtained under certain conditions such as staggered entry of subjects into the study and/or incomplete follow-up (Biometrics. 1989; 5:781-795). Thus, a second study was implemented to verify that the conclusions derived from the Kaplan-Meier would remain robust to the length of follow-up. The assumption was that all patients were followed for one year. Patients who discontinued from the study prior to one year of observation had their last observation for all health-related QoL domains carried forward through the remainder of the year. Similarly, patients who had not completed one year of observation had their health-related QoL data carried forward through one year. If the patient experienced a clinical event within the one year period, the last observation was not carried forward. The Area under the Curve (AUC) value for each domain was computed by multiplying the health-related QoL domain score by the respective duration of that score. Finally, AUC values were aggregated across all subjects within each respective treatment group (atrasentan (10 mg), atrasentan (2.5 mg), and placebo). Aggregated AUC values for each domain were compared for differences between treatment groups using a t-test."}, "[2]": {"system": "patients having hormone refractory prostate cancer (HRPCa)", "experiment": "Time to disease progression, PSA progression and markers of bone metabolism", "description": "Patients received treatment with either 10 mg (N=89) or 2.5 mg (N=95) of atrasentan or placebo (N=104) until experiencing a clinical event indicative of disease progression as defined by palliative opiate treatment of new bone or visceral pain, palliative radiation treatment of new bone pain, or new tumor growth symptoms requiring intervention or treatment with chemotherapy."}, "[3]": {"system": "patients having hormone refractory prostate cancer (HRPCa)", "experiment": "Health-related quality-adjusted time-to-progression (QATTP), Kaplan-Meier product limit analysis", "conditions": "for health-related QATTP, difference between the atrasentan treatment groups: 10 mg vs 2.5 mg", "description": "The health-related QATTP model used for the practice of this invention expresses progression-free time as an equally preferable amount of time spent in full health. This is achieved by using patient-reported health-related QoL, as measured for the duration of observation or progression-free interval, to weight progression-free time. […] Patients received treatment with either 10 mg (N=89) or 2.5 mg (N=95) of atrasentan or placebo (N=104) until experiencing a clinical event indicative of disease progression as defined by palliative opiate treatment of new bone or visceral pain, palliative radiation treatment of new bone pain, or new tumor growth symptoms requiring intervention or treatment with chemotherapy. Patient-reported health-related QoL data were collected with the EORTC QLQ-30 and the FACT-G and FACT-P, both of which were administered at baseline, at six week intervals and at the patient's final visit. A patient's transformed domain score and total score from both the EORTC QLQ-30 and FACT were used to weight the time-to-progression outcome data. Transformed domain scores ranged between 0 and 1, so the reported health-related QATTP outcome was never larger than actual time to progression. Possible scores for the fourteen EORTC domains each range between […]. For six domains (physical, emotional, role, social, and cognitive functioning and global score), a higher score means a better health-related QoL. These six scores were transformed to weights by dividing the patient-reported scores by 100. For the remaining eight EORTC domains, a higher score indicates worse symptoms (a worse health-related QoL). These domains are pain, fatigue, nausea and vomiting, appetite loss, […], sleep disturbance, diarrhea, and constipation. These eight scores were converted to weight adjustments by dividing them by 100 and subtracting the result from the integer 1 to provide consistent directionality of response. […] Each patient's health-related QATTP was computed as the […] of the health-related QoL weights and the duration for which that patient experienced that health-related QoL. If a patient experienced a clinical event between two health-related QoL assessments, the set of health-related QoL domain scores immediately prior to the event were carried forward to the time of the clinical event. The mean and median health-related QATTP outcomes were then estimated using Kaplan-Meier product limit methodology (Journal of the American Statistical Association, vol.53, 1958, pp 457-481). The area under a Kaplan-Meier survival curve conveys an estimated mean health-related QATTP. This analysis was applied to both intent-to-treat (ITT) and per protocol population data. All health-related QATTP comparisons between atrasentan and placebo treatment groups were based on log-rang test statistical significance at an α of 0.05. Results of the Kaplan-Meier product limit survival method analysis are reported in Table 2 (Intent to Treat) and Table 3 (Per Protocol Population). Mean and median health-related QATTP are shown by treatment arm. Log-rank tests comparing the differences between treatment groups are also reported."}, "[4]": {"conditions": "10 mg and 2.5 mg, Per Protocol subjects"}, "[5]": {"conditions": "At. 10 mg, adjusted by FACT Functional Well Being, Intent to Treat"}, "[6]": {"conditions": "At. 10 mg, adjusted by FACT Physical Well Being, Per Protocol"}}, "note": "“Also recorded” adds a separate entry of the source.", "data": [{"smiles": "CCCCN(CCCC)C(=O)CN1C[C@H](c2ccc3c(c2)OCO3)[C@@H](C(=O)O)[C@@H]1c1ccc(OC)cc1", "note": "[atrasentan, (2R,3R,4S)-2-(4-methoxyphenyl)-4-(1,3-benzodioxol-5-yl)-1-(N,N-di(n-butyl)aminocarbonylmethyl)pyrrolidine-3-carboxylic]", "values": [{"measurement": "AUC results vs placebo group", "setting": "[1]; 2.5 mg, all domains except dyspnea, social/family, functional well-being and FACT-P", "result": "significantly improved"}, {"measurement": "AUC of health-related QoL domain scores, atrasentan treatment vs placebo", "setting": "[1]; Intent to Treat population", "result": "no statistical differences"}, {"measurement": "AUC of health-related QoL domain scores, 10 mg vs 2.5 mg groups", "setting": "[1]; per-protocol population", "result": "not statistically differentiable"}, {"measurement": "AUC of health-related QoL domain scores, atrasentan treatment groups vs placebo", "setting": "[1]; per-protocol population, every QoL domain score", "result": "strong trends in favor"}, {"measurement": "AUC for health-related QoL domain scores vs placebo", "setting": "[1]; physical functioning, social functioning and pain domains", "result": "significantly (p<0.05) longer"}, {"measurement": "time to disease progression compared to placebo", "setting": "[2]; 10 mg and 2.5 mg, Per Protocol analysis", "result": "delayed"}, {"measurement": "markers of bone metabolism", "setting": "[2]; [4]", "result": "attenuated increases"}, {"measurement": "time to prostate-specific antigen (PSA) progression", "setting": "[2]; [4]", "result": "delayed"}, {"measurement": "time to disease or PSA progression across treatment groups", "setting": "[2]; intent-to-treat population", "result": "no statistically significant differences"}, {"measurement": "mean health-related QATTP vs placebo", "setting": "[3]; 2.5 mg, per protocol", "result": "longer"}, {"measurement": "log rank test of health-related QATTP vs placebo", "setting": "[3]; 2.5 mg, per protocol, all QoL domains except dyspnea and functional well-being", "result": "statistically significant"}, {"measurement": "mean and median health-related QATTP, atrasentan treatment groups vs placebo", "setting": "[3]; 10 mg and 2.5 mg, intent-to-treat population", "result": "no statistically significant differences"}, {"measurement": "health-related QATTP, difference between the atrasentan treatment groups", "setting": "[3]; intent-to-treat population", "result": "no statistically significant differences"}, {"measurement": "health-related QATTP, difference between the atrasentan treatment groups", "setting": "[3]; per protocol, any QoL domain", "result": "no statistical differences"}, {"measurement": "health-related QATTP trend vs placebo", "setting": "[3]; 10 mg, per protocol, dyspnea, global score, emotional well-being, social well-being, p<0.10", "result": "trend favored"}, {"measurement": "weighted health-related QATTP vs placebo group", "setting": "[3]; 10 mg, per protocol, p<0.05, all QoL domains except dyspnea, global score, emotional, social and functional well-being", "result": "significantly longer"}, {"measurement": "Health-Related QATTP Mean", "setting": "[3]; At. 2.5 mg, adjusted by EORTC Cognitive Functioning, Intent to Treat", "result": 180, "unit": "days"}, {"measurement": "Health-Related QATTP Mean", "setting": "[3]; At. 2.5 mg, adjusted by EORTC Cognitive Functioning, Per Protocol", "result": 190, "unit": "days"}, {"measurement": "Health-Related QATTP Mean", "setting": "[3]; At. 2.5 mg, adjusted by EORTC Constipation, Intent to Treat", "result": 180, "unit": "days"}, {"measurement": "Health-Related QATTP Mean", "setting": "[3]; At. 2.5 mg, adjusted by EORTC Constipation, Per Protocol", "result": 190, "unit": "days"}, {"measurement": "Health-Related QATTP Mean", "setting": "[3]; At. 2.5 mg, adjusted by EORTC Dyspnea, Per Protocol", "result": 180, "unit": "days"}, {"measurement": "Health-Related QATTP Mean", "setting": "[3]; At. 2.5 mg, adjusted by FACT Emotional Well Being, Intent to Treat", "result": 180, "unit": "days"}, {"measurement": "Health-Related QATTP Mean", "setting": "[3]; At. 2.5 mg, adjusted by FACT Social/Family Well Being, Intent to Treat", "result": 160, "unit": "days"}, {"measurement": "Health-Related QATTP Mean", "setting": "[3]; At. 2.5 mg, adjusted by FACT-G, Per Protocol", "result": 180, "unit": "days"}, {"measurement": "Health-Related QATTP Mean", "setting": "[3]; At. 2.5 mg, adjusted by FACT-P, Per Protocol", "result": 160, "unit": "days"}, {"measurement": "Health-Related QATTP Mean", "setting": "[3]; At. 10 mg, adjusted by EORTC Role Functioning, Intent to Treat", "result": 180, "unit": "days"}, {"measurement": "Health-Related QATTP Mean", "setting": "[3]; At. 10 mg, adjusted by EORTC Social Functioning, Intent to Treat", "result": 190, "unit": "days"}, {"measurement": "Health-Related QATTP Mean", "setting": "[3]; [5]", "result": 140, "unit": "days"}, {"measurement": "Health-Related QATTP Median", "setting": "[3]; [5]", "result": 98, "unit": "days"}, {"measurement": "Health-Related QATTP Mean", "setting": "[3]; [6]", "result": 190, "unit": "days"}, {"measurement": "Health-Related QATTP Median", "setting": "[3]; [6]", "result": 130, "unit": "days"}, {"measurement": "Health-Related QATTP Mean", "setting": "[3]; At. 10 mg, adjusted by FACT-G, Intent to Treat", "result": 160, "unit": "days"}, {"measurement": "Health-Related QATTP Median", "setting": "[3]; At. 10 mg, adjusted by FACT-G, Per Protocol", "result": 130, "unit": "days"}, {"measurement": "health-related QATTP compared to placebo", "setting": "[3]; both 10 mg and 2.5 mg arms, per protocol analysis", "result": "improved; also recorded: longer"}]}]}
